Experiments:
Format in all cases: in vivo
Sunflower [1] = experiment: Test C preemergence; settings: Rate 250 g/ha, visual evaluation after 12 to 14 days
[2] = system: barnyardgrass (Echinochloa crus-galli); experiment: Test C flooded paddy test; settings: for Barnyardgrass plant response rating: Flooded Paddy, scale 0 to 100, 0 no effect, 100 complete control; for Plant response rating, Barnyardgrass: flooded paddy test, scale 0 to 100 (0 no effect, 100 complete control)
In short: (§1)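 Ratings come from visual comparison with control plants after 12 to 14 days in the greenhouse. Each species was at the 2-leaf stage when the flooded paddy was treated. Scores run from 0, meaning no effect, to 100, meaning complete control.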

rice (Oryza saliva) [3] = experiment: Test C flooded paddy test; settings: for Rice plant response rating: Flooded Paddy, scale 0 to 100, 0 no effect, 100 complete control; for Plant response rating, Rice: flooded paddy test, scale 0 to 100 (0 no effect, 100 complete control)
In short: as §1

[4] = system: smallflower flatsedge (Cyperus difformis); experiment: Test C flooded paddy test; settings: for Flatsedge plant response rating: Flooded Paddy, scale 0 to 100, 0 no effect, 100 complete control; for Plant response rating, Flatsedge: flooded paddy test, scale 0 to 100 (0 no effect, 100 complete control)
In short: as §1

[5] = system: duck salad (Heteranthera limosa); experiment: Test C flooded paddy test; settings: for Ducksalad plant response rating: Flooded Paddy, scale 0 to 100, 0 no effect, 100 complete control; for Plant response rating, Ducksalad: flooded paddy test, scale 0 to 100 (0 no effect, 100 complete control)
In short: as §1

[6] = system: blackgrass (Alopecurus myosuroides); experiment: Test B postemergence; settings: 13 to 15 days
In short: (§2)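 Visual injury scores, 0 = no effect to 100 = complete control, assigned against controls after 13 to 15 days in the greenhouse. Compounds formulated in non-phytotoxic solvent plus surfactant and applied to soil after planting (pre) or onto foliage of 1- to 4-leaf plants (post).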

[7] = system: cocklebur (Xanthium strumarium); experiment: Test B postemergence; settings: 13 to 15 days
In short: as §2

[8] = system: crabgrass (Digitaria sanguinalis); experiment: Test B postemergence; settings: 13 to 15 days
In short: as §2

[9] = system: wheat (Triticum aestivum); experiment: Test B postemergence; settings: 13 to 15 days
In short: as §2

[10] = system: giant foxtail (Setaria faberii); experiment: Test B postemergence; settings: 13 to 15 days
In short: as §2

[11] = system: pigweed (Amaranthus retroflexus); experiment: Test B postemergence; settings: 13 to 15 days
In short: as §2

wild oat (Avena fatua) = experiment: Test B postemergence; settings: 13 to 15 days
In short: as §2

Nightshade = experiment: Test C preemergence; settings: Rate 250 g/ha, visual evaluation after 12 to 14 days
corn (Zea mays) = experiment: Test B preemergence; settings: scale 0 to 100, 0 no effect, 100 complete control
In short: as §2

[12] = system: morning glory (Ipomoea hederacea); experiment: Test B preemergence; settings: scale 0 to 100, 0 no effect, 100 complete control
In short: as §2

[13] = system: cocklebur (Xanthium strumarium); experiment: Test B preemergence; settings: scale 0 to 100, 0 no effect, 100 complete control
In short: as §2

[14] = system: velvetleaf (Abutilon theophrasti); experiment: Test B preemergence; settings: scale 0 to 100, 0 no effect, 100 complete control
In short: as §2

[15] = system: barnyardgrass (Echinochloa crus-galli); experiment: Test B preemergence; settings: scale 0 to 100, 0 no effect, 100 complete control
In short: as §2

rice (Oryza saliva) [16] = experiment: Test B preemergence; settings: scale 0 to 100, 0 no effect, 100 complete control
In short: as §2

[17] = system: lambsquarters (Chenopodium album); experiment: Test B preemergence; settings: scale 0 to 100, 0 no effect, 100 complete control
In short: as §2

[18] = system: crabgrass (Digitaria sanguinalis); experiment: Test B preemergence; settings: scale 0 to 100, 0 no effect, 100 complete control
In short: as §2

[19] = system: Surinam grass (Brachiaria decumbens); experiment: Test B preemergence; settings: scale 0 to 100, 0 no effect, 100 complete control
In short: as §2

[20] = system: giant foxtail (Setaria faberii); experiment: Test B preemergence; settings: scale 0 to 100, 0 no effect, 100 complete control
In short: as §2

[21] = system: pigweed (Amaranthus retroflexus); experiment: Test B preemergence; settings: scale 0 to 100, 0 no effect, 100 complete control
In short: as §2

Sunflower [22] = experiment: Test C preemergence; settings: Rate 125 g/ha, scale 0 to 100, 0 no effect, 100 complete control
[23] = Rate 125 g/ha, scale 0 (no effect) to 100 (complete control)
[24] = Rate 500 g/ha, scale 0 to 100, 0 is no effect, 100 is complete control

CC(C)(C)c1ccn(C2CCN(c3cccc(C(F)(F)F)c3)C2=S)n1 (stereo not shown) [Compound 22]
90: Plant response rating, Pigweed [11, 24] | Plant response rating, Pigweed ([21]; preemergence, Rate 125 g/ha)
80: Plant response rating, Barnyardgrass ([2]; Rate 125 g/ha) | Ducksalad plant response rating ([5]; Rate 250 g/ha) | Plant response rating, Ducksalad ([5]; Rate 125 g/ha) | Plant response rating, Pigweed [11, 23] | Plant response rating, Barnyardgrass ([15]; Preemergence, Rate 500 g/ha)
30: Plant response rating, Surinam grass ([19]; preemergence, Rate 125 g/ha) | Plant response rating, Foxtail, Giant ([20]; preemergence, Rate 125 g/ha)
20: Rice plant response rating (rice (Oryza saliva) [3]; Rate 250 g/ha) | Plant response rating, Rice (rice (Oryza saliva) [3]; Rate 62 g/ha) | Plant response rating, Rice (rice (Oryza saliva) [3]; Rate 125 g/ha) | Plant response rating, Cocklebur [7, 23] | Plant response rating, Cocklebur [7, 24]
40: Plant response rating, Barnyardgrass ([2]; Rate 62 g/ha) | Rice plant response rating (rice (Oryza saliva) [3]; Rate 500 g/ha) | Plant response rating, Crabgrass [8, 23] | Plant response rating, Crabgrass [8, 24] | Plant response rating (0 to 100), Nightshade (Nightshade)
0: Plant response rating (0 to 100), Sunflower (Sunflower [1]) | Plant response rating, Blackgrass [6, 23] | Plant response rating, Blackgrass [6, 24] | Plant response rating, Wheat [9, 23] | Plant response rating, Wheat [9, 24] | Plant response rating, Foxtail, Giant [10, 23] | Plant response rating, Foxtail, Giant [10, 24] | Plant response rating, Wild Oat (wild oat (Avena fatua); [23]) | Plant response rating, Wild Oat (wild oat (Avena fatua); [24]) | Plant response rating, Corn (corn (Zea mays); Preemergence, Rate 500 g/ha) | Plant response rating, Corn (corn (Zea mays); preemergence, Rate 125 g/ha) | Plant response rating, Morningglory ([12]; Preemergence, Rate 500 g/ha) | Plant response rating, Morningglory ([12]; preemergence, Rate 125 g/ha) | Plant response rating, Cocklebur ([13]; Preemergence, Rate 500 g/ha) | Plant response rating, Cocklebur ([13]; preemergence, Rate 125 g/ha) | Plant response rating, Velvetleaf ([14]; Preemergence, Rate 500 g/ha) | Plant response rating, Velvetleaf ([14]; preemergence, Rate 125 g/ha) | Plant response rating, Barnyardgrass ([15]; preemergence, Rate 125 g/ha) | Plant response rating, Rice (rice (Oryza saliva) [16]; Preemergence, Rate 500 g/ha) | Plant response rating, Rice (rice (Oryza saliva) [16]; preemergence, Rate 125 g/ha) | Plant response rating, Crabgrass ([18]; preemergence, Rate 125 g/ha) | Plant response rating, Sunflower (Sunflower [22])
50: Plant response rating, Ducksalad ([5]; Rate 62 g/ha) | Plant response rating, Surinam grass ([19]; Preemergence, Rate 500 g/ha)
100: Barnyardgrass plant response rating ([2]; Rate 250 g/ha) | Barnyardgrass plant response rating ([2]; Rate 500 g/ha) | Flatsedge plant response rating ([4]; Rate 250 g/ha) | Flatsedge plant response rating ([4]; Rate 500 g/ha) | Plant response rating, Flatsedge ([4]; Rate 62 g/ha) | Plant response rating, Flatsedge ([4]; Rate 125 g/ha) | Ducksalad plant response rating ([5]; Rate 500 g/ha) | Plant response rating, Lambsquarters ([17]; Preemergence, Rate 500 g/ha) | Plant response rating, Lambsquarters ([17]; preemergence, Rate 125 g/ha) | Plant response rating, Crabgrass ([18]; Preemergence, Rate 500 g/ha) | Plant response rating, Foxtail, Giant ([20]; Preemergence, Rate 500 g/ha) | Plant response rating, Pigweed ([21]; Preemergence, Rate 500 g/ha)

From patent US7138361B2, “Herbicidal heterocycles” (E. I. du Pont de Nemours and Company, priority 2000, dated 2006)
